Test results from patent publication US20250114327A1, “COMPOSITION COMPRISING TETRACYCLIC COMPOUND” (CHUGAI SEIYAKU KABUSHIKI KAISHA, priority 2010, published 2025).
Structures can show the parent of a compound that is named as a salt.

Columns and labels:
[1] = Small scale dissolution test in FaSSIF (Test example 2); conditions: 37° C., paddle 50 rpm

Q: With `CCc1cc2c(cc1N1CCC(N3CCOCC3)CC1)C(C)(C)c1[nH]c3cc(C#N)ccc3c1C2=O` [9-ethyl-6,6-dimethyl-8-(4-morpholin-4-yl-piperidin-1-yl)-11-oxo-6,11-dihydro-5H-benzo[b]carbazole-3-carbonitrile monohydrochloride salt] as the compound, how does the “solubility of the Compound F6-20 hydrochloride salt crystal” value ([1]; 5 to 240 min, results in figures, stated in words) read?
A: Its value is “improved by addition of SLS and poly(sodium 4-styrene sulfonate)”.

Q: What about the “initial solubility of the Compound F6-20 hydrochloride salt crystal” value ([1]; early phase, stated in words (FIG. 26)) of the same compound?
A: The value was “improved by addition of polyoxyethylene (105) polyoxypropylene (5) glycol”.

Q: Which “Dissolved concentration after 10 min” value does the source give for `CC1(C)c2cc(C3CCN(C4COC4)CC3)ccc2C(=O)c2c1[nH]c1cc(C#N)ccc21` [Comparative example 4, 6,6-Dimethyl-8-(1-oxetan-3-yl-piperidin-4-yl)-11-oxo-6,11-dihydro-5H-benzo[b]carbazole-3-carbonitrile] here?
A: Its value is 8.3 ± 1.5 µg/mL.

Q: And the “Dissolved concentration after 240 min” value?
A: The value was 3.8 ± 2.6 µg/mL.

Q: Which “Dissolved concentration after 10 min” value does the source give for `CC1(C)c2cc(N3CCN(C4COC4)CC3)c(Br)cc2C(=O)c2c1[nH]c1cc(C#N)ccc21` [Comparative example 5, 9-Bromo-6,6-dimethyl-8-(4-oxetan-3-yl-piperazin-1-yl)-11-oxo-6,11-dihydro-5H-benzo[b]carbazole-3-carbonitrile] here?
A: The value was 4.4 ± 0.4 µg/mL.

Q: And the “Dissolved concentration after 240 min” value?
A: The value was 4.8 ± 0.3 µg/mL.

Q: Which “Dissolved concentration after 10 min” value does the source give for `CC1(C)c2cc(N3CCN(C4CC4)CC3)c(Br)cc2C(=O)c2c1[nH]c1cc(C#N)ccc21` [Comparative example 6, 9-Bromo-8-(4-cyclopropyl-piperazin-1-yl)-6,6-dimethyl-11-oxo-6,11-dihydro-5H-benzo[b]carbazole-3-carbonitrile] here?
A: The value was 18.2 ± 0.1 µg/mL.

Q: And the “Dissolved concentration after 240 min” value?
A: The value was 3.7 ± 0.5 µg/mL.

Q: With `CCc1cc2c(cc1N1CCN(C3COC3)CC1)C(C)(C)c1[nH]c3cc(C#N)ccc3c1C2=O` [Comparative example 7, 9-Ethyl-6,6-dimethyl-8-(4-oxetan-3-yl-piperazin-1-yl)-11-oxo-6,11-dihydro-5H-benzo[b]carbazole-3-carbonitrile] as the compound, how does the “Dissolved concentration after 10 min” value read?
A: Its value is 0.4 ± 0.2 µg/mL.

Q: And the “Dissolved concentration after 240 min” value?
A: The value was 0.4 ± 0.4 µg/mL.

Q: For `CCc1cc2c(cc1N1CCC(N3CCOCC3)CC1)C(C)(C)c1[nH]c3cc(C#N)ccc3c1C2=O` [Compound F6-20 mesylate salt, 9-Ethyl-6,6-dimethyl-8-(4-morpholin-4-yl-piperidin-1-yl)-11-oxo-6,11-dihydro-5H-benzo[b]carbazole-3-carbonitrile], which “solubility of the Compound F6-20 mesylate salt crystal” value ([1]; 5 to 240 min, versus Comparative example 3, stated in words) is on record?
A: The value was “improved in accordance with the additive amount of sodium lauryl sulfate”.
